# Like-named read-outs stand apart in the source and are kept apart here. Marks after values point to notes of the source that are not given here.
# Legend:
# [1] = LC-MS/MS bioanalysis of plasma and brain homogenate, mouse model of brain metastasis (MDA231-BrM2-831); assay type: in vivo, NCr nude mice; settings: for Kp at 2 h / Kp uu at 2 h / concentration at 2 h: female, NCr nude (CrTac:NCr-Foxn1nu), mouse, oral; for concentration at 2 h: oral once daily 5 days, niraparib 35 mg/kg or olaparib 50 mg/kg, 2 h after final dose
# Excerpt: A luciferase-transfected human breast adenocarcinoma cell line (MDA 231-BRM2-831) was used to generate a metastatic brain tumor model in female athymic nude mice. […] NCr nude mice (strain: CrTac: NCr-Foxn1^nu; female; 5–7 weeks old; Taconic Biosciences (Germantown, NY)) were used for these studies. A power analysis was completed by a statistician to determine the appropriate sample sizes for each group to measure a statistically significant. […] Control mice (n = 10) underwent a sham IC procedure (needle insertion into the ventricle without cell injection. All mice were monitored for tumor development by bioluminescence imaging (BLI) approximately once weekly for ~ 45 days, beginning 1 h after cell injection. In vivo BLI was performed at ~ 10 min post-luciferin injection (corresponding to the peak bioluminescent signal) using an IVIS Spectrum-CT system (PerkinElmer, Waltham, MA). Imaging parameters were set to automatic exposure in the Living Image software, while the binning (8) and aperture (open f-stop) remained at the default settings for all BLI acquisitions. The imaging frequency was increased to twice weekly for mice that developed brain metastases (BMs) as indicated by increased bioluminescence in the cranial region. […] The exact tumor size was not measured as an endpoint of this study. […] Two hours after the final dose, mice were euthanized by CO2 asphyxiation. At necropsy, a terminal blood sample was collected via cardia puncture, and the brains were harvested and snap-frozen by floating on liquid nitrogen. […] From each plane, serial tissue sections were collected for MALDI MSI and for H&E staining, and immunohistochemistry (IHC) staining. Tissue trimmings from between each plane were collected, homogenized, and submitted for bioanalysis in addition to the terminal plasma samples.
# in vivo = assay: in vivo
# Protocol: Female C57BL/6 mice were inoculated intracranially on the right side of the brain in the right frontal lobe with mouse glioblastoma (GL261) tumor cells (≈ 2 × 10^5) in 3 µL of phosphate-buffered saline for the tumor development. Mice were observed daily for clinical signs, and any mouse meeting predefined criteria for moribund status was euthanized. Criteria for moribund sacrifice included: ≥ 20% body weight loss or severe neurological symptoms (e.g., prostration, paralysis, seizures, hemorrhage).
# Mice were euthanized by CO2 asphyxiation.
# Brain tissue was weighed in polypropylene tubes, then PBS was added to the tissue sample before homogenization (1:4 wt: vol).
# The LC-MS/MS system included an API-6500 triple quadrupole mass spectrometer (Sciex). Data were acquired and processed using Analyst® 1.7.2 software (Sciex). An Acquity UHPLC BEH C18 analytical column (1.7-µm, 2.1 × 50 mm; Waters) was applied in sample analysis.
# For olaparib, the LLQ was 5.00 ng/mL, and the HLQ was 1000 ng/mL.
# First, the brain tissue partition coefficient Kp, brain was calculated using Eq. (1).
# Where Css, brain is the mean steady-state total drug concentration in brain tissue, and Css, plasma is the mean steady-state total drug concentration in plasma (both measured by LC-MS/MS). […] Finally, Kp, uu, brain was calculated using Eq. (2).2 [drawing 2]
# [2] = Protein binding by rapid equilibrium dialysis, CD1 mouse brain and plasma; settings: pH 7.4
# Excerpt: The luciferase-transfected human breast cancer cell line (MDA231-BrM2-831) was purchased from Memorial Sloan Kettering Cancer Center (New York, NY). […] Deuterated olaparib (olaparib-d8) was purchased from Alsachim (Illkirch Graffenstaden, France). Cynomolgus macaque brain tissue (lot #CYN252598), rhesus macaque brain tissue (lot #RHS24901), rhesus macaque plasma (lot #RHS24900), CD1 mouse brain tissue (lot #MSE343926), and CD1 mouse plasma (lot #MSE343926) used in the protein-binding assays were obtained from BioIVT (Westbury, NY).
# Brain (diluted 1:4 [5×] in PBS) or plasma (undiluted) were spiked with each test compound and applied to each matrix. Aliquots of each mixture were added to the donor wells of a rapid equilibrium dialysis plate in triplicate, and blank PBS was added to each receiver well, at volumes recommended by the manufacturer. Plates were incubated with shaking at 200 rpm for 4 h at 37 °C. At the end of incubation, samples were collected from each donor and receiver well. Samples were matrix-matched with the addition of an equivalent volume of blank matrix to each receiver sample and blank PBS to each donor sample. Additional samples were collected from each incubation mixture at the beginning (T = 0 min) and end (T = 240 min) of incubation for determination of stability, and matrix-matched with PBS as described above. The resultant samples were extracted by protein precipitation with acetonitrile containing an analytical internal standard, centrifuged, and analyzed by LC-MS/MS.
# [3] = design: method as in earlier work; settings: humans, multiple-dose oral administration; cited from earlier work
# [4] = brain, BM mice (niraparib n = 4, olaparib n = 3), read-out: Group mean (SD) Kp, brain
# [5] = brain, BM mice (niraparib n = 4, olaparib n = 3), read-out: Group mean (SD) Kp, uu, brain
# [6] = brain, No BM mice (n = 3), read-out: LC-MS/MS Bulk brain tissue, mean (SD)
# [7] = brain, No BM mice (n = 3), read-out: Group mean (SD) Kp, brain
# [8] = brain, No BM mice (n = 3), read-out: Group mean (SD) Kp, uu, brain
# [9] = brain, all mice (BM and no-BM combined), read-out: Mean Kp, brain
# [10] = brain, all mice (BM and no-BM combined), read-out: Mean Kp, uu, brain
# [11] = plasma, No BM mice (n = 3), read-out: LC-MS/MS Terminal plasma, mean (SD)
# [12] = female, C57BL/6, mouse, brain tumor, oral
# [13] = female, C57BL/6, mouse, contralateral normal brain, oral
# [14] = female, C57BL/6, mouse, contralateral normal brain/plasma, oral
# [15] = female, C57BL/6, mouse, normal brain, oral, 35 mg/kg
Structure (SMILES),"Kp at 2 h [1, 4]","Kp uu at 2 h [1, 5]","concentration at 2 h [1, 6] [ng/g]","Kp at 2 h [1, 7]","Kp uu at 2 h [1, 8]","Kp at 2 h [1, 9]","Kp uu at 2 h [1, 10]","concentration at 2 h [1, 11] [ng/mL]",Kp at 2 h (in vivo; [12]),concentration at 24 h (in vivo; [13]) [ng/g],other results
NC(=O)c1cccc2cn(-c3ccc([C@@H]4CCCNC4)cc3)nc12 [Niraparib],0.214,0.03,658,0.171,0.024,0.193,0.026,3850,0.893,171,"overall mean Kp, uu, brain, niraparib higher than olaparib ([1]; all mice (BM and no-BM combined)): about 1.2 fold; concentration at 24 h (in vivo; [12]): 436 ng/g; Kp at 24 h (in vivo; female, C57BL/6, mouse, brain tumor, oral, 35 mg/kg): 0.465; Kp uu at 2 h (in vivo; [14]): 0.011; Kp at 2 h (in vivo; female, C57BL/6, mouse, normal brain, oral): 0.08; Kp at 24 h (in vivo; [15]): 0.182; Kp uu at 24 h (in vivo; [15]): 0.025; fraction unbound at 4 h, 1 µM ([2]; brain homogenate (diluted 1:4 [5×] in PBS)): 0.0295; fraction unbound at 4 h, 1 µM ([2]; cynomolgus monkey, brain homogenate (diluted 1:4 [5×] in PBS)): 0.0361; fraction unbound at 4 h, 1 µM ([2]; plasma (undiluted)): 0.22"
O=C(c1cc(Cc2n[nH]c(=O)c3ccccc23)ccc1F)N1CCN(C(=O)C2CC2)CC1 [Olaparib],0.102,0.047,5,0.027,0.015,0.036,0.022,226,0.126,8,"Kp, brain (in vivo; 2 h since dose, normal brain): 0.031; Brain tumor, mean (SD) (in vivo; 24 h since dose, n = 9, olaparib: only three of nine animals had detectable drug levels): 78 (92)^d ng/g; Kp at 2 h (in vivo; [14]): 0.031; Kp uu at 2 h (in vivo; female, C57BL/6, mouse, in vivo): 0.02; fraction unbound at 4 h, 1 µM ([2]; CD1, mouse, brain homogenate): 0.23; Fu ([2]; CD1, mouse, plasma, 4 h, 1 µM): 35.2%; Tmax [3]: 1 to 3 h"

# Reference: article PMC12480552 (Scientific Reports, 2025)
